The record followed here is the supplement of paper PMC5412046.

Structures are written as SMILES. Structures can show the parent of a compound that is named as a salt.

For orientation: viability means a read-out of living cells in per cent, often relative to untreated cells.

Assay [1] relates to SB.mhdgc-1. As to the kind of experiment: viability at highest tested concentration (MAXR) relative to DMSO; higher = less cytotoxic. Conditions: SB.mhdgc-1 (hereditary c.1380delA CDH1 gastric cancer). In short, it runs like this: (§1)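 Viability, normalised to DMSO, is listed either at the highest concentration or as trapezoidal area under the curve. It was measured in patient-derived gastric cancer cells, hereditary or sporadic, exposed for 48 h to 11 threefold-diluted compound concentrations and then assayed with CellTiter-Glo luminescence.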

The test system of assay [2] is SB.msgc-1. Described as above. The conditions noted are these: SB.msgc-1 (sporadic gastric cancer). In short, it runs like this: as §1
The subject of assay [3] is SB.mhdgc-1. As to the kind of experiment: area under the dose-response curve of % viability (trapezoidal, 11 doses) (% viability x log10 concentration); higher = less cytotoxic. Conditions: SB.mhdgc-1 (hereditary c.1380delA CDH1 gastric cancer). The gist of the method: as §1
In assay [4] the test system is SB.msgc-1. Described as above. The conditions noted are these: SB.msgc-1 (sporadic gastric cancer). The gist of the method: as §1

On to `CN(C)CCCN\C1=C\2C(=O)N(C)C(=O)\N=C2N(C)C3=C1C=CC=C3` (top concentration 46.0829 µM), for which the viability stood at 55.1% in the assay on SB.mhdgc-1 [1] and 55.9% in the assay on SB.msgc-1 [2]. For the same molecule, the “area under the dose-response curve” value in the assay with SB.mhdgc-1 [3] worked out at 433; in the assay on SB.msgc-1 [4], 518.

As for `Cc1ccnc2c1NC(=O)c1cccnc1N2C1CC1` [Nevirapine] (top concentration 46.0829 µM), the figures for the viability in the assay with SB.mhdgc-1 [1] and with SB.msgc-1 [2] were 2.97% and 7.46%, respectively. Further, the results for the “area under the dose-response curve” value with SB.mhdgc-1 [3] and with SB.msgc-1 [4] were 497 and 579, respectively.

Consider `CN(C)CCN(Cc1ccc(Cl)cc1)c1ccccn1.Cl` [Halopyramine] (top concentration 46.0829 µM), for which the viability in the assay on SB.mhdgc-1 [1] stood at 51.1%; in the assay on SB.msgc-1 [2], 10.4%. Moreover, the “area under the dose-response curve” value is 452 in the assay with SB.mhdgc-1 [3] and 266 with SB.msgc-1 [4].

For the molecule `CC1SC/2=C(C(O)=O)/C(=O)C3=CC(=C(C=C3N12)N4CCN(CC4)C\C5=C(C)\OC(=O)O5)F` (configuration not stated) [Prulifloxacin] (top concentration 46.0829 µM), the results for the viability in the assay with SB.mhdgc-1 [1] and with SB.msgc-1 [2] were 93.9% and 106%, respectively. Further, the “area under the dose-response curve” value with SB.mhdgc-1 [3] is 514; in the assay on SB.msgc-1 [4] it was 582.

For the molecule `CC[C@H](C)C(=O)O[C@H]1C[C@H](O)\C=C2\C=C/[C@H](C)[C@H](CC[C@@H](O)C[C@@H](O)CC(O)=O)[C@@H]12` [Pravastatin sodium] (top concentration 46.0829 µM), the viability was 121% in the assay on SB.mhdgc-1 [1] and 91.1% with SB.msgc-1 [2]. Moreover, the “area under the dose-response curve” value came to 557 in the assay on SB.mhdgc-1 [3] and 525 with SB.msgc-1 [4].

Consider `CC(N[C@H]1C[C@@H]1c1ccccc1)c1ccc2c(c1)OCCO2` (some centres not stated) [LSD1-C76] (top concentration 46.0829 µM), for which the viability amounted to 126% in the assay with SB.mhdgc-1 [1] and 99.3% in the assay on SB.msgc-1 [2]. The “area under the dose-response curve” value in the assay on SB.mhdgc-1 [3] turned out to be 606; in the assay with SB.msgc-1 [4], 513.

For `N=c1c2c(-c3ccccc3)c(-c3ccccc3)n(Cc3ccccc3)c2ncn1[C@H]1CC[C@H](O)CC1` (top concentration 46.0829 µM), the viability was 0.949% in the assay on SB.mhdgc-1 [1] and 17.3% in the assay on SB.msgc-1 [2]. Also, the results for the “area under the dose-response curve” value in the assay with SB.mhdgc-1 [3] and with SB.msgc-1 [4] were 431 and 434, respectively.

Turning to `CC(C)(C)OC(=O)CN(Cc1ccc(Cl)cc1)Cc1ccc([N+](=O)[O-])s1` [GSK-4112] (top concentration 46.0829 µM), the viability in the assay with SB.mhdgc-1 [1] was 76.5%; in the assay with SB.msgc-1 [2] it was 45.7%. In addition, the “area under the dose-response curve” value in the assay on SB.mhdgc-1 [3] was found to be 515; with SB.msgc-1 [4] it was 399.

Regarding `OC[C@H]1O[C@H]([C@@H](F)[C@@H]1O)N2\C=C/C(=O)NC2=O` (top concentration 46.0829 µM), the viability in the assay on SB.mhdgc-1 [1] was 46.4%; in the assay with SB.msgc-1 [2] it was 38.1%. Also, the “area under the dose-response curve” value in the assay on SB.mhdgc-1 [3] was found to be 538; with SB.msgc-1 [4], 451.

`C=C1/C(=C/C=C2\CCCC3(C)[C@@H]([C@H](C)/C=C/C=C/C(O)(CC)CC)CC[C@@H]23)C[C@@H](O)C[C@@H]1O` (some centres not stated) [Seocalcitol] (top concentration 46.0829 µM): the results for the viability with SB.mhdgc-1 [1] and in the assay on SB.msgc-1 [2] were 31.7% and 4.45%, respectively. The “area under the dose-response curve” value turned out to be 460 in the assay on SB.mhdgc-1 [3] and 429 with SB.msgc-1 [4].

For the molecule `CNC(=O)N1\N=C(\C2=CC=C(N)C=C2)C3=CC4=C(OCO4)C=C3CC1C` (configuration not stated) (top concentration 46.0829 µM), the figures for the viability in the assay with SB.mhdgc-1 [1] and with SB.msgc-1 [2] were 72.1% and 42.3%, respectively. Further, the “area under the dose-response curve” value in the assay with SB.mhdgc-1 [3] worked out at 476; with SB.msgc-1 [4], 489.

For `NC1CCC(Nc2nc(Nc3ccc(C(=O)N4CCCCC4)cc3)c3ncn(-c4cccc(F)c4)c3n2)CC1` (configuration not stated) [Purfalcamine] (top concentration 46.0829 µM), the viability with SB.mhdgc-1 [1] amounted to 122%; in the assay with SB.msgc-1 [2] it was 92.6%. In addition, the “area under the dose-response curve” value in the assay with SB.mhdgc-1 [3] turned out to be 624; with SB.msgc-1 [4], 547.

As for `CC[C@@H]1C(=O)N(C)c2cnc(Nc3ccc(C(=O)NC4CCC(N5CCN(CC6CC6)CC5)CC4)cc3OC)nc2N1C(C)C` (some centres not stated) [Volasertib] (top concentration 46.0829 µM), the viability came to 3.26% in the assay with SB.mhdgc-1 [1] and 16.2% in the assay with SB.msgc-1 [2]. The entries for the “area under the dose-response curve” value in the assay with SB.mhdgc-1 [3] and in the assay on SB.msgc-1 [4] were 363 and 345, respectively.

Take `C1Cc2[nH]nc(-c3nn[nH]n3)c2C1` [MK-0354] (top concentration 46.0829 µM): the figures for the viability with SB.mhdgc-1 [1] and in the assay with SB.msgc-1 [2] were 98.4% and 112%, respectively. Besides, the results for the “area under the dose-response curve” value in the assay on SB.mhdgc-1 [3] and in the assay on SB.msgc-1 [4] were 450 and 499, respectively.

Take `Cc1cnc(C(=O)O)c[n+]1[O-]` [Acipimox] (top concentration 46.0829 µM): the viability came to 136% with SB.mhdgc-1 [1] and 106% in the assay with SB.msgc-1 [2]. In addition, the figures for the “area under the dose-response curve” value in the assay with SB.mhdgc-1 [3] and in the assay on SB.msgc-1 [4] were 589 and 545, respectively.

Regarding `COc1cc2nc(N3CCN(C(=O)C4CCCO4)CC3)nc(N)c2cc1OC` (configuration not stated) [Terazosin hydrochloride] (top concentration 46.0829 µM), the viability with SB.mhdgc-1 [1] amounted to 98.7%; with SB.msgc-1 [2], 104%. In addition, the “area under the dose-response curve” value was found to be 496 in the assay on SB.mhdgc-1 [3] and 539 with SB.msgc-1 [4].

For the molecule `C[N+]1(C)[C@@H]2C[C@@H](OC(=O)[C@H](CO)c3ccccc3)C[C@H]1[C@@H]1O[C@@H]12.[Br-]` [Methscopolamine bromide] (top concentration 46.0829 µM), the viability was found to be 98.7% in the assay with SB.mhdgc-1 [1] and 133% in the assay on SB.msgc-1 [2]. For the same molecule, the entries for the “area under the dose-response curve” value with SB.mhdgc-1 [3] and with SB.msgc-1 [4] were 496 and 578, respectively.

On to `CCC\C1=C\C(=O)NC(=S)N1` [Propylthiouracil] (top concentration 46.0829 µM), for which the viability was found to be 64.9% in the assay on SB.mhdgc-1 [1] and 112% in the assay with SB.msgc-1 [2]. For the same molecule, the results for the “area under the dose-response curve” value with SB.mhdgc-1 [3] and in the assay on SB.msgc-1 [4] were 545 and 584, respectively.

On to `CCCCCCCCCCCCCCCC(=O)OC[C@@H](NC(=O)C(Cl)Cl)[C@H](O)c1ccc([N+](=O)[O-])cc1` [Chloramphenicol Palmitate] (top concentration 46.0829 µM), for which the viability with SB.mhdgc-1 [1] was determined as 103%; in the assay on SB.msgc-1 [2] it was 126%. In addition, the “area under the dose-response curve” value was 496 in the assay on SB.mhdgc-1 [3] and 514 in the assay on SB.msgc-1 [4].

For `Nc1ccccc1NC(=O)c1ccc(CNc2nccc(-c3cccnc3)n2)cc1` [Mocetinostat] (top concentration 46.0829 µM), the results for the viability in the assay on SB.mhdgc-1 [1] and in the assay with SB.msgc-1 [2] were 69% and 16.8%, respectively. In addition, the entries for the “area under the dose-response curve” value in the assay with SB.mhdgc-1 [3] and with SB.msgc-1 [4] were 447 and 355, respectively.

Take `C[C@@H](O)[C@@H]1[C@H]2[C@@H](C)\C(=C(/N2C1=O)C(=O)OCOC(=O)C(C)(C)C)SC3CN(C3)/C4=N/CCS4` [Tebipenem pivoxil] (top concentration 46.0829 µM): the viability in the assay on SB.mhdgc-1 [1] was 115%; with SB.msgc-1 [2] it was 91.9%. For the same molecule, the “area under the dose-response curve” value worked out at 530 with SB.mhdgc-1 [3] and 529 in the assay on SB.msgc-1 [4].

As for `Clc1ccc(COC(Cn2ccnc2)c2ccc(Cl)cc2Cl)cc1` (configuration not stated) [Econazole nitrate] (top concentration 46.0829 µM), the viability in the assay with SB.mhdgc-1 [1] was 77.1%; in the assay with SB.msgc-1 [2] it was 64.3%. For the same molecule, the “area under the dose-response curve” value in the assay on SB.mhdgc-1 [3] is 552; in the assay with SB.msgc-1 [4], 514.

Turning to `COc1cc(C(C)=O)ccc1OCCCN1CCC(c2noc3cc(F)ccc23)CC1` [Iloperidone] (top concentration 46.0829 µM), the viability in the assay with SB.mhdgc-1 [1] came to 50.2%; in the assay with SB.msgc-1 [2] it was 84.2%. Also, the “area under the dose-response curve” value is 502 in the assay with SB.mhdgc-1 [3] and 510 with SB.msgc-1 [4].
